# Non-standard residues stand in square brackets, D forms with d. Residues, ends and D or L forms follow the SMILES beside them. Ahx = NCCCCCC(=O)O; Sar = CNCC(=O)O
# Molecular target: T1, furin (Homo sapiens, UniProt P09958)
# T1 construct: made in house; host or cells: Drosophila S2 cells (Invitrogen expression system)
# Test: biochemical
# Conditions: furin, Pyr-RTKR-AMC substrate; alanine scanning mutagenesis of the H5 furin cleavage sequence (Table 2); read-out: Ki
# T1 sequence (P09958 108-794 limits assumed): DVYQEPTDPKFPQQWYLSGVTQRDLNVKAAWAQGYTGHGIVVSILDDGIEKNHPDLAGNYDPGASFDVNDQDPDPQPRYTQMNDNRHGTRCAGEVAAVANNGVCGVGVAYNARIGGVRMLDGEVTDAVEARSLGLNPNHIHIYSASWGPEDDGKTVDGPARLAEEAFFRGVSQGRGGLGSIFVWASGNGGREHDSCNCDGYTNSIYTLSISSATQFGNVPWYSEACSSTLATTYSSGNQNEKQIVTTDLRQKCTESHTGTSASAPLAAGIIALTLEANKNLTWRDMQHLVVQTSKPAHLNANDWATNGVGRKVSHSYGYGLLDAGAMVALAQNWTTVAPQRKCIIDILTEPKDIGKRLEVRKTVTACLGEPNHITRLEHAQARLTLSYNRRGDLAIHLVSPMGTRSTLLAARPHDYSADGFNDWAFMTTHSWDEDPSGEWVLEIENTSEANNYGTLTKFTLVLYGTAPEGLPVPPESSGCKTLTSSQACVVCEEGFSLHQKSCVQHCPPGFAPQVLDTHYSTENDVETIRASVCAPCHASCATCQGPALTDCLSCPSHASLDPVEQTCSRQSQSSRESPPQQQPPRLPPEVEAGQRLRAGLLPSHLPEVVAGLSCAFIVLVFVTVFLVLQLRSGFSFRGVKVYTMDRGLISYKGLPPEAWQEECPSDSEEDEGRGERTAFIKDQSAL
row,Compound,Ki
1,CC(C)[C@H](NC(=O)[C@H](CCCNC(=N)N)NC(=O)[C@H](CCCCN)NC(=O)[C@H](CCCCN)NC(=O)[C@H](CCCNC(=N)N)NC(=O)[C@H](CCCNC(=N)N)NC(=O)[C@H](CCCNC(=N)N)NC(=O)[C@H](CCC(=O)O)NC(=O)[C@H](CCCNC(=N)N)NC(=O)[C@H](C)NC(=O)[C@@H](N)[C@@H](C)O)C(N)=O (H-TARERRRKKRV-NH2),> 100 nM
2,C[C@H](NC(=O)[C@H](CCCNC(=N)N)NC(=O)[C@H](CCCNC(=N)N)NC(=O)[C@H](CCC(=O)O)NC(=O)[C@H](CCCNC(=N)N)NC(=O)[C@@H]1CCCN1C(=O)[C@@H](N)[C@@H](C)O)C(=O)N[C@@H](CCCCN)C(=O)N[C@@H](CCCCN)C(=O)N[C@@H](CCCNC(=N)N)C(N)=O (H-TPRERRAKKR-NH2),> 100 nM
3,C[C@H](NC(=O)[C@H](CCCNC(=N)N)NC(=O)[C@H](CCC(=O)O)NC(=O)[C@H](CCCNC(=N)N)NC(=O)[C@@H]1CCCN1C(=O)[C@@H](N)[C@@H](C)O)C(=O)N[C@@H](CCCNC(=N)N)C(=O)N[C@@H](CCCCN)C(=O)N[C@@H](CCCCN)C(=O)N[C@@H](CCCNC(=N)N)C(=O)N(C)CC(N)=O (H-TPRERARKKR[Sar]-NH2),> 100 nM
4,CC(C)[C@H](NC(=O)[C@H](CCCNC(=N)N)NC(=O)[C@H](CCCCN)NC(=O)[C@H](CCCCN)NC(=O)[C@H](CCCNC(=N)N)NC(=O)[C@H](CCCNC(=N)N)NC(=O)[C@H](CCCNC(=N)N)NC(=O)[C@H](C)NC(=O)[C@H](C)NC(=O)[C@@H]1CCCN1C(=O)[C@@H](N)[C@@H](C)O)C(N)=O (H-TPAARRRKKRV-NH2),> 100 nM
5,C[C@H](NC(=O)[C@H](C)NC(=O)[C@H](CCCNC(=N)N)NC(=O)[C@@H]1CCCN1C(=O)[C@@H](N)[C@@H](C)O)C(=O)N[C@@H](CCCNC(=N)N)C(=O)N[C@@H](CCCNC(=N)N)C(=O)N[C@@H](CCCCN)C(=O)N[C@@H](CCCCN)C(=O)N[C@@H](CCCNC(=N)N)C(=O)NCC(N)=O (H-TPRAARRKKRG-NH2),> 100 nM
6,C[C@H](NC(=O)[C@H](C)NC(=O)[C@@H]1CCCN1C(=O)[C@@H](N)[C@@H](C)O)C(=O)N[C@@H](CCCNC(=N)N)C(=O)N[C@@H](CCCNC(=N)N)C(=O)N[C@@H](CCCNC(=N)N)C(=O)N[C@@H](CCCCN)C(=O)N[C@@H](CCCCN)C(=O)N[C@@H](CCCNC(=N)N)C(N)=O (H-TPAARRRKKR-NH2),> 100 nM

# Same assay, conditions: furin, Pyr-RTKR-AMC substrate; optimization of the inhibitory peptides (Table 3); read-out: Ki
row,Compound,Ki
1,C[C@@H](O)[C@H](N)C(=O)N1CCC[C@H]1C(=O)N[C@@H](CCC(N)=O)C(=O)N[C@@H](CCCNC(=N)N)C(=O)N[C@@H](CC1CCCCC1)C(=O)N[C@@H](CCCNC(=N)N)C(=O)N[C@@H](CCCNC(=N)N)C(=O)N[C@@H](CCCNC(=N)N)C(=O)N[C@@H](CCCCN)C(=O)N[C@@H](CCCCN)C(=O)N[C@@H](CCCNC(=N)N)C(=O)NCC(N)=O [TPQR7RRRKKRG],> 100 nM
2,CSC[C@H](NC(=O)[C@H](CCCNC(=N)N)NC(=O)[C@H](CCCCN)NC(=O)[C@H](CCCCN)NC(=O)[C@H](CCCNC(=N)N)NC(=O)[C@H](CCCNC(=N)N)NC(=O)[C@H](CCCNC(=N)N)NC(=O)[C@H](C)NC(=O)[C@H](CCCNC(=N)N)NC(=O)[C@H](CCC(N)=O)NC(=O)[C@@H]1CCCN1C(=O)[C@@H](N)[C@@H](C)O)C(N)=O (H-TPQRARRRKKRC(Me)-NH2),93 nM
3,CSCC[C@H](NC(=O)[C@H](CCCNC(=N)N)NC(=O)[C@H](CCCCN)NC(=O)[C@H](CCCCN)NC(=O)[C@H](CCCNC(=N)N)NC(=O)[C@H](CCCNC(=N)N)NC(=O)[C@H](CCCNC(=N)N)NC(=O)[C@H](C)NC(=O)[C@H](CCCNC(=N)N)NC(=O)[C@H](CCC(N)=O)NC(=O)[C@@H]1CCCN1C(=O)[C@@H](N)[C@@H](C)O)C(N)=O (H-TPQRARRRKKRM-NH2),58 nM
4,C[C@H](NC(=O)[C@H](CCCNC(=N)N)NC(=O)[C@H](CCC(N)=O)NC(=O)[C@@H]1CCCN1C(=O)[C@@H](N)[C@@H](C)O)C(=O)N[C@@H](CCCNC(=N)N)C(=O)N[C@@H](CCCNC(=N)N)C(=O)N[C@@H](CCCNC(=N)N)C(=O)N[C@@H](CCCCN)C(=O)N[C@@H](CCCCN)C(=O)N[C@H](CCCNC(=N)N)C(=O)NCC(N)=O,> 100 nM
5,C[C@H](NC(=O)[C@H](CCCNC(=N)N)NC(=O)[C@H](CCC(N)=O)NC(=O)[C@@H]1CCCN1C(=O)[C@@H](N)[C@@H](C)O)C(=O)N[C@@H](CCCNC(=N)N)C(=O)N[C@@H](CCCNC(=N)N)C(=O)N[C@@H](CCCNC(=N)N)C(=O)N[C@@H](CCCCN)C(=O)N[C@@H](CCCCN)C(=O)N[C@@H](CCCNC(=N)N)C(=O)N[C@@H](CCC(=O)O)C(N)=O (H-TPQRARRRKKRE-NH2),103 nM
6,C[C@H](NC(=O)[C@H](CCCNC(=N)N)NC(=O)[C@H](CCC(N)=O)NC(=O)[C@@H]1CCCN1C(=O)[C@@H](N)[C@@H](C)O)C(=O)N[C@@H](CCCNC(=N)N)C(=O)N[C@@H](CCCNC(=N)N)C(=O)N[C@@H](CCCNC(=N)N)C(=O)N[C@@H](CCCCN)C(=O)N[C@@H](CCCCN)C(=O)N[C@@H](CCCNC(=N)N)C(=O)NCC(N)=O,> 100 nM
7,C[C@@H](O)[C@H](N)C(=O)N1CCC[C@H]1C(=O)N[C@@H](CCC(N)=O)C(=O)N[C@@H](CCCNC(=N)N)C(=O)N[C@@H](Cc1ccccc1)C(=O)N[C@@H](CCCNC(=N)N)C(=O)N[C@@H](CCCNC(=N)N)C(=O)N[C@@H](CCCNC(=N)N)C(=O)N[C@@H](CCCCN)C(=O)N[C@@H](CCCCN)C(=O)N[C@@H](CCCNC(=N)N)C(=O)NCC(N)=O (H-TPQRFRRRKKRG-NH2),> 100 nM
8,CC[C@H](C)[C@H](NC(=O)[C@H](CCCNC(=N)N)NC(=O)[C@H](CCC(N)=O)NC(=O)[C@@H]1CCCN1C(=O)[C@@H](N)[C@@H](C)O)C(=O)N[C@@H](CCCNC(=N)N)C(=O)N[C@@H](CCCNC(=N)N)C(=O)N[C@@H](CCCNC(=N)N)C(=O)N[C@@H](CCCCN)C(=O)N[C@@H](CCCCN)C(=O)N[C@@H](CCCNC(=N)N)C(=O)NCC(N)=O (H-TPQRIRRRKKRG-NH2),> 100 nM
9,C[C@@H](O)[C@H](N)C(=O)N1CCC[C@H]1C(=O)N[C@@H](CCC(N)=O)C(=O)N[C@@H](CCCNC(=N)N)C(=O)N[C@H](CCCNC(=N)N)C(=O)N[C@@H](CCCNC(=N)N)C(=O)N[C@@H](CCCNC(=N)N)C(=O)N[C@@H](CCCNC(=N)N)C(=O)N[C@@H](CCCCN)C(=O)N[C@@H](CCCCN)C(=O)N[C@@H](CCCNC(=N)N)C(=O)NCC(N)=O [TPQRrRRRKKRG],> 100 nM
10,C[C@H](NC(=O)[C@H](CCCNC(=N)N)NC(=O)[C@H](CCC(N)=O)NC(=O)[C@@H]1CCCN1C(=O)[C@@H](N)[C@@H](C)O)C(=O)N[C@@H](CCCNC(=N)N)C(=O)N[C@@H](CCCNC(=N)N)C(=O)N[C@@H](CCCNC(=N)N)C(=O)N[C@@H](CCCCN)C(=O)N[C@@H](CCCCN)C(=O)N[C@@H](CCCNC(=N)N)C(=O)N[C@@H](CCCCN)C(N)=O (H-TPQRARRRKKRK-NH2),> 100 nM
11,C[C@H](NC(=O)[C@H](CCCNC(=N)N)NC(=O)[C@H](CCC(N)=O)NC(=O)[C@@H]1CCCN1C(=O)[C@@H](N)[C@@H](C)O)C(=O)N[C@@H](CCCNC(=N)N)C(=O)N[C@@H](CCCNC(=N)N)C(=O)N[C@@H](CCCNC(=N)N)C(=O)N[C@@H](CCCCN)C(=O)N[C@@H](CCCCN)C(=O)N[C@@H](CCCNC(=N)N)C(=O)NCCCCCC(N)=O (H-TPQRARRRKKR[Ahx]-NH2),> 100 nM
12,C[C@@H](O)[C@H](N)C(=O)N1CCC[C@H]1C(=O)N[C@@H](CCC(N)=O)C(=O)N[C@@H](CCCNC(=N)N)C(=O)N[C@@H](CC(N)=O)C(=O)N[C@@H](CCCNC(=N)N)C(=O)N[C@@H](CCCNC(=N)N)C(=O)N[C@@H](CCCNC(=N)N)C(=O)N[C@@H](CCCCN)C(=O)N[C@@H](CCCCN)C(=O)N[C@@H](CCCNC(=N)N)C(=O)NCC(N)=O (H-TPQRNRRRKKRG-NH2),> 100 nM
